Test results published in patent US5723114A, “Penetration enhancing compositions and methods of their use” (Cellegy Pharmaceuticals Inc., priority 1996, dated 1998).
Structures can show the parent of a compound that is named as a salt. One block for each compound: values may come before it.

Assays:
[1] = test system: skin barrier (flanks of hairless mice); experiment: TEWL topical studies: barrier recovery after acetone or tape stripping with topical proton-pump inhibitors; type: in vivo; details: DCCD-treated skin immersed in an acidic buffer
Procedure: Proton-pump inhibitors: N,N'-dicyclohexylcarbodiimide (DCCD); 1-10 mM); N-ethyl maleimide (NEM; 1 mM); 7-chloro-4-nitrobenz-2-oxa-1,3-diazole (NBD Cl; 1 mM) and bafilomycin A1 (10 μM) were prepared in vehicle (i.e., 70% propylene glycol, 30% ethanol). Flanks of hairless mice were pre-treated for 30 minutes to 1 hour with drug or vehicle alone before breaking the barrier with acetone. TEWL readings were taken at various time points as described above, followed by additional treatments with drug or vehicle. The DCCD-override study included immersion of flanks in HEPES buffer at pH 5.5 or 7.4 after the pre-treatment with either drug or vehicle and after breaking the barrier with either acetone or by tape stripping.
Test results are shown in FIG. 7 (NEM, NBD-chloride, BAF).

[2] = Percutaneous lidocaine delivery (scintillation counting of plasma and body); parameters: species or system hairless mouse; details: mouse, in vivo
Procedure: (§1) A female hairless mouse, aged 8 weeks, was treated with oleic acid. After oleic acid treatment, epicholesterol, which substitutes for cholesterol, or transvaccenic acid or stearyl amine, both of which substitute for free fatty acid, was applied to the animal.
(§2) First, TEWL of the left (LHS) and right (RHS) dorsal sides was measured. Then, the animal was anesthetized by 0.25 ml chloral hydrate (CH) IP injection. At t=0, an aliquot of 30 μl oleic acid solution (5% in propylene glycol/ethanol 7:3 (v/v)) was applied directly to both sides of the animal (~1.5×3 cm) using a Hamilton syringe. Two hours after oleic acid treatment, the TEWL rates of both sides were measured, and the RHS was treated with 30 μl of epicholesterol alone and with transvaccenic acid or stearylamine (1.5% in propylene glycol/ethanol 7:3 (v/v)). TEWL was measured thereafter every 2 or 3 hours.
(§3) The mice were kept under anesthesia until the harvest of tissue samples and then sacrificed. At time zero, the tested drug delivery compound listed in Tables 2, 3 and 4 below was applied to the whole treated flank of each mouse. After four hours TEWL was measured again and two drug formulations,one containing lidocaine in a vehicle of a mixture of propylene glycol and ethanol and the other containing Leuteinizing Hormone Releasing Hormone (LHRH) in a vehicle of 60% ethanol, 20% propylene glycol and 20% water. Residual formulation was removed from the skin surface with cotton balls three times and the cotton balls were put into vial #1. Five tape-strippings were conducted at the treated skin sites, and each tape was put into an individual vial numbered 2-6. At the same time, blood was drawn and stored under refrigeration. Urine was collected from the mice during the two hour drug application period and placed into vial #8.
After an additional two hours, the treated skin was cut off, the subcutaneous fat was removed, and the whole skin was placed into vial #7 to which 1 ml of tissue solubilizer was added, and the mixture was allowed to digest overnight at 55° C. The corpse was digested in 100 ml of saponification mix at 55° C. overnight.
For analysis, 10 ml of Scintisafe (30% ) Scintillation media (Fisher Scientific, Fairlawn, N.J.) was added to vials 1-6, and 8. The blood samples were centrifuged, and an aliquot of 100-200 μl was placed into vial #9 and 10 ml of Scintisafe (30%) was added. Similar aliquots of the corpse digest were placed into vials #10 and #11. To vials #9, 10, and 11, 100 μl of 30% hydrogen peroxide was added to decolorize the contents for about two hours. Then […] of Scintisafe (30%) and 150 μl of acetic acid were added and the mixture was let stand overnight. All vials were subjected to scintillation counting as described above. The parameters for the vehicle are as follows: TEWL 266±22 (T=4 hours); plasma concentration 0.31±0.03%; total body concentration 13.13±0.83(% dose/ml plasma); N=14.

[3] = test system: skin barrier (stratum corneum, treated flank of hairless mouse); experiment: TEWL (water permeability) after oleic acid treatment and application of drug delivery compound; type: in vivo; details: for TEWL (T = 4 hours): vehicle 266±22; for water permeability: words
Procedure: as §1
TEWL (trans-epidermal water loss) was measured before and after treatment at convenient time intervals when the animal was alert. An Evaperimeter (ServoMed) was used.
as §2, §3

[4] = Table 2/Table 3, no hourly application, TRIS 50 mM, HEPES 20 mM

Structure (SMILES): C(=NC1CCCCC1)=NC1CCCCC1 [DCCD, N,N'-dicyclohexylcarbodiimide]
barrier recovery, override study [1]: normalized (corrected) the rate of barrier recovery

lidocaine delivery ([2]; pH 5.5): significant increases
Structure (SMILES): O=S(=O)(O)CCN1CCN(CCO)CC1 [HEPES, (N-[2-Hydroxyethyl]piperazine-N'-[2-ethanesulfonic acid])]
lidocaine delivery ([2]; pH 5.4): approached statistical significance (p=0.05-0.10) | lidocaine delivery ([2]; pH 7.4): only increased water permeability was significant | TEWL (T = 4 hours) ([3]; Table 2/Table 3, hourly application, HEPES 20 mM, listed as HEPES (pH 5.5)): 560 ± 125 | TEWL (T = 4 hours) ([3]; Table 2/Table 3, hourly application, HEPES 20 mM, listed as HEPES (pH 7.4)): 460 ± 24 | TEWL (T = 4 hours) [3, 4]: 360 ± 18 | water permeability ([3]; alone, single application, pH 5.4): approached statistical significance (p=0.05-0.10) | water permeability ([3]; hourly to maintain pH 5.5): significant increases | water permeability ([3]; hourly to maintain pH 7.4): increased water permeability was significant

Structure (SMILES): NC(CO)(CO)CO [TRIS, Tris(hydroxymethyl) aminomethyl maleate]
lidocaine delivery ([2]; pH 5.5): very significantly (p≤0.001) increased | TEWL (T = 4 hours) [3, 4]: 583 ± 109 | water permeability ([3]; alone, pH 5.5): significantly increased

Plasma Conc. (lidocaine) [2]: 0.24 ± 0.05 % dose/ml plasma | Total Body Conc. (lidocaine) [2]: 11.40 ± 1.98% | lidocaine delivery [2]: significantly increased
Structure (SMILES): CC(C)CCC[C@@H](C)[C@H]1CC[C@H]2[C@@H]3CC=C4C[C@H](O)CC[C@]4(C)[C@H]3CC[C@]12C [epicholesterol]
TEWL (T = 4 hours) ([3]; Table 4, synthetic lipid analogs in propylene glycol/ethanol): 397 ± 55
